One experiment deals with mice. The experiment is described as follows: Analgesic potency in mice by tail-flick method (in vivo). To be noted: for AD50: mice, tail-flick; for relative potency: molar basis, AD50 of βh-endorphin as 100%. The source says: (§1) In vitro assay of opiate activity was by the guinea pig ileum method of Kosterlitz et al, Brit. J. Pharmacol. 39, 398 (1970) and in vivo assay in mice was by the tail-flick method of D'Amour and Smith, J. Pharmacol. Exp. Therap. 72, 74 (1941). The experimental procedure and method of calculation has been outlined by Loh et al., Proc. Natl. Acad. Sci. 73, 2895 (1976) and Tseng et al., Nature 263, 239 (1976).
(Hot-plate and tail-flick tests time the reaction to a heat stimulus.)

Another experiment deals with guinea pig ileum. The experiment is described as follows: Opiate activity by guinea pig ileum assay (in vitro). Format: cell-based. To be noted: for relative potency: calculated using the IC50 of βh-endorphin as 100%; for IC50: guinea pig ileum assay.
Excerpt: as §1

The term IC50 denotes the concentration that inhibits the measured activity by half. A lower IC50 goes with inhibition by little substance. Consider “[Ala^6,7, Phe^27, Gly^31 ] - βh -EP (YGGFMAAEKSQTPLVTLFKNAIIKNAFKKGG; Beta-endorphin; UniProt P01189 237-267, looked up, variant T6A S7A Y27F E31G) [Peptide II, analog of human β-endorphin substituted with Ala at 6 and 7, Phe at 27, Gly at 31]”, for which, in the experiment with mice (intracerebroventricular), the AD50 is 0.46(0.28-0.77) μg/mouse and the relative potency was 23%. Further, in the experiment on mice (intravenous), the AD50 is 22.1(14.3-34.3) mg/kg and the relative potency is given as 49%. In the experiment on guinea pig ileum, the relative potency is listed as 118% and the IC50 was determined as 38 nM.
Regarding “[Phe^27, Gly^31 ] - βh -EP (YGGFMTSEKSQTPLVTLFKNAIIKNAFKKGG; Beta-endorphin; UniProt P01189 237-267, looked up, variant Y27F E31G) [Peptide I, analog of human β-endorphin substituted with Phe at 27 and Gly at 31]”, the “duration of analgesic activity” value in the experiment on mice (after iv injection compared with icv injection) is given as “shorter than after icv injection”. In addition, the AD50 in the experiment with mice (intracerebroventricular) was 0.09(0.08-0.11) μg/mouse; in the experiment with mice (intravenous), 7.5(3.4-16.5) mg/kg. Further, the relative potency in the experiment with mice (intracerebroventricular) is listed as 119%; in the experiment on mice (intravenous) it was 148%; with guinea pig ileum it was 128%. Further, in the experiment on mice (mouse, iv or icv, in words), the “in vivo analgesic activity compared with βh-endorphin” value is listed as “greater in vivo analgesic activity than the natural peptide”. The same substance had an IC50 with guinea pig ileum of 35 nM.
Regarding βh -endorphin [reference compound], the AD50 in the experiment with mice (intracerebroventricular) is reported as 0.11(0.07-0.17) μg/mouse; in the experiment on mice (intravenous), 11.4(6.4-19.6) mg/kg. Also, the relative potency in the experiment with mice (intracerebroventricular), in the experiment with mice (intravenous) and in the experiment with guinea pig ileum was 100% in each case. In the experiment with guinea pig ileum, this substance returned an IC50 of 45 nM.
On to “[Nle^5, Phe^27, Gly^31 ] - βh -EP [Peptide III]”, for which the AD50 with mice (intracerebroventricular) is recorded as 0.31(0.14-0.72) μg/mouse; in the experiment on mice (intravenous) it was “ca. 17.0 mg/kg”. Moreover, the figures for the relative potency in the experiment on mice (intracerebroventricular), in the experiment with mice (intravenous) and with guinea pig ileum were 35%, 65% and 118%, respectively. This substance showed an IC50 with guinea pig ileum of 38 nM.
For the substance “[D-Thr^2, Phe^27, Gly^31 ] - βh EP [Peptide IV]”, the AD50 is recorded as 0.52(0.24-1.16) μg/mouse with mice (intracerebroventricular) and “ca. 32.0 mg/kg” with mice (intravenous). Besides, the relative potency is recorded as 21% with mice (intracerebroventricular), 32% in the experiment with mice (intravenous) and 136% in the experiment with guinea pig ileum. For the same substance, in the experiment on guinea pig ileum, half-maximal inhibition (IC50) required 33 nM.

Source of the values: patent US4116950A, “Analogs of human β-endorphin” (Hoffmann-La Roche Inc., priority 1978, dated 1978).
